Columns and labels:
[1] = test system: cAMP level in young and senescent fibroblasts; assay: Measurement of cyclic AMP (cAMP) by competitive binding assay; assay type: cell-based, human
Protocol: Sub-cultured young (PD 20) and senescent (PD 65) fibroblasts were treated with various concentrations of ACI for 1 hr. The level of cAMP in the acid extracts was measured by using a cAMP binding assay. The results shown represent the means±standard deviation of a representative experiment.
(§1) Human umbilical vein endothelial cells (HUVEC) were isolated from endothelial cells of umbilical cords as described by Whang et al (Whang et al., 2005). Foreskin human fibroblasts and keratinocytes were isolated from newborn foreskins as described by Boyce and Ham (Boyce and Ham, 1983). Patient consents were obtained from all donors and the use of tissue samples was approved by the ethics committee of the Seoul National University. The obtained and isolated fibroblasts and HUVEC were maintained in DMEM containing 10% fetal bovine serum (FBS) and antibiotics, and keratinotyes were in keratinocyte growth medium (KGM) containing antibiotics. Cells from the early stage of culture were cultured to obtain aged cells, which were used in experiments (population doubling -PD- of less than 25 vs PD 65-70 in fibroblasts, PD less than 5 vs PD 10-12 in case of HUVEC). Senescent cells were characterized by morphological changes, enhanced […]β-galactosidase activity and a reduced rate of proliferation (Yeo et al., 2000). Cells were grown for 2 days to 60-70% sub-confluency in the culture medium after treatment with LPA or ACI, and then serum-starved to quiescence by incubating them with either serum free DMEM containing 0.1% BSA (fibroblasts or HUVEC) or KBM (keratinocytes) for 2 days.
After removing the medium, 2.5 M of perchloric acid was added into the plate. The obtained acid extract was stored at […] until use, when the extract was neutralized with 4.2 M KOH and the cAMP content was determined by competitive binding with [^3H]-cAMP to the cAMP binding protein, RIα[…] of cAMP-dependent protein kinase (Jang and Juhnn, 2001). After the extraction, cells were lysed with 0.1 N NaOH and protein content was determined using Bradford protein assay reagent. The cAMP content was normalized versus the amount of acid-insoluble protein (expressed as the content of cAMP per protein concentration).

[2] = test system: young and senescent fibroblasts, HUVEC, skin keratinocytes; assay: Cell growth / proliferation (cell number count); assay type: cell-based, human; conditions: for cell number in senescent cells of various cell types: senescent fibroblasts, old donor fibroblasts, HUVEC, keratinocytes, degree depends on cell type (FIG. 5)
Protocol: Sub-cultured young (PD 25, A) and senescent (PD 73, B) fibroblasts were serum-starved for 2 days and treated with LPA, 1 mM of dbcAMP (+dbcAMP), or 300 μM of ACI SQ22536 (+ACI) for 4 days. The number of cells was counted. The results shown represent the means±standard deviation of a representative experiment.
Sub-cultured young (PD 25) and senescent (PD 73) cells (A), fibroblasts from young and elderly donors (B), HUVEC (C) and skin keratinocytes (D) were serum-starved for 2 days and treated with LPA, and then treated with 1 mM of dibutyryl-cAMP, or 300 μM of ACI (SQ22536) for 4 days. The number of cells was counted. The results shown represent the means±standard deviation of a representative experiment.
as §1

[3] = test system: young and senescent fibroblasts, HUVEC, skin keratinocytes; assay: DNA synthesis ([3H]-thymidine incorporation); assay type: cell-based, human; conditions: for basal and LPA-stimulated DNA synthesis in senescent cells: 1 mM dbcAMP or 300 μM ACI 2 hrs, then 30 μM LPA (FIG. 4A)
Protocol: as §1, with “Sub-cultured young (PD 25) and senescent (PD 73) cells (A), skin fibroblasts from young and elderly donors (B), HUVEC (C) and skin keratinocytes (D) were serum-starved for 2 days and treated with 1 mM of dibutyryl-cAMP (dbcAMP), or 300 […]μM of ACI (SQ22536) for 2 hrs. Cells were then treated with 30 μM of LPA in the presence of 0.5 μCi/ml of [^3H]-radioactive isotope. The radioactivity incorporated into the DNA was counted and fold increase of radioactive isotope incorporation was calculated and plotted. The results shown represent the means±standard deviation of a representative experiment. Human” for “Human”, “days. […] Radioactivity in the neutralized lysates was counted in a liquid scintillation cocktail. The measured radioactivity as such was compared to that of control to find the synthesis degree of […].” for “days.”

[4] = test system: young and senescent fibroblasts (HDFs); assay: In vitro wound healing assay (cell migration into acellular area); assay type: cell-based, human; conditions: for migration of senescent cells / migration of young cells: serum-starved; for migration of senescent cells: LPA 30 μM, ACI 300 μM, 72 hrs (FIGS. 6B, 6D); for migration of young cells: LPA 30 μM or ACI 300 μM, up to 72 hrs (FIGS. 6A, 6C)
Protocol: Sub-cultured young (A, C) and senescent cells (B, D) were serum-starved for 2 days and treated with ACI or dbcAMP (1 mM) for 2 hr at 37° C. An area was denuded by a yellow tip and the cells were then treated with LPA (30 μM) and incubated at 37° C. Photographs were taken at 6 hrs, 12 hrs, 18 hrs, 24 hrs, 30 hrs, 36 hrs, 42 hrs, 60 hrs, and 72 hrs, and the number of cells migrated into the acellular area was counted and the average values were plotted in A and B. The data at 72 hrs were replotted in a bar graph to show the significant changes induced by treating cells with either LPA or ACI, or both (C and D). The results shown represent the means±standard deviation of a representative experiment. Cell migration from each group (p<0.001) was compared to the control value the migration was read as having a significance.
LPA-induced cell migration was assessed by the ability of the cells to move into an acellular area (Shiraha et al., 2000). Cells were plated on a 10-cm plastic dish and grown to 70-80% confluence in the culture media with 10% FBS. After a 2-day quiescence in serum free media with 0.1% BSA, cells were pretreated with vehicle, ACI (300 μM), or dbcAMP (1 mM) for 2 hrs at 37° C. An area was denuded by a tip and the cells were then incubated at 37° C. without or with LPA (30 μM). Photographs were taken at 6 hrs, 12 hrs, 18 hrs, 24 hrs, 30 hrs, 36 hrs, 42 hrs, 60 hrs, and 72 hrs, and the number of cells migrating to the acellular area was counted.

[5] = test system: skin wounds of young and aged Fisher 344 rats; assay: Skin wound healing in young and aged rats (photographs, H & E, PCNA staining); assay type: in vivo, rat; conditions: for epithelialization (H & E) of aged wounded rats: day 4, compared to control untreated groups; for PCNA staining in aged rats: wound sections, versus very weak staining in control aged rats; for number of PCNA positive cells / wound healing rate (photographs of wounds): young and aged rats; for number of PCNA positive cells: wound sections (FIG. 9B, 9C); for wound healing rate (photographs of wounds): LPA 30 μM, ACI 300 μM, 200 μl topical once per two days, 4th day (FIG. 7)
Protocol: Rats were anesthetized with intraperitoneal injection of ketamine and xylazine. The back was shaved (A) and four full-thickness circular skin wounds of 1.0 cm diameter were cut (B). A teflon wound chamber was glued into the edge of the skin and then sewn using a […] (C).
Young and old rats were anesthetized and wounded as described in the legend of FIG. 1. 200 μl aliquots of the solutions containing LPA (30 μM), ACI (300 μM), and the mixture of LPA and ACI dissolved in physiological saline were applied onto wound sites using a sterile glass filter in each wound chamber once per two days. After 4 days, the wounds were photographed.
Young and old rats were anesthetized and wounded as described in the legend of FIG. 1. The wounds were treated with LPA (30 μM), ACI (300 μM), or the mixture of LPA and ACI as described in the legend of FIG. 1c. On postoperative days 4, animals were anesthetized and killed as described in “Materials and Methods”. Approximately 5-mm-thick section across the dorsoventral diameter of the wound was cut and fixed and embedded in paraffin. Serial sections were cut and processed for hematoxylin-eosin (H & E) staining. H & E stained epithelial layer was visualized on the top of each section.
Young and aged rats were anesthetized and wounded as described in the legend of FIG. 1. The wounds were treated with LPA (30 μM), ACI (300 μM), or the mixture of LPA and ACI as described in the legend of FIG. 1c. On postoperative days 2, 4, and 7, animals were anesthetized and killed as described in “Materials and Methods”. An about 5-mm-thick section across the dorsoventral diameter of the wound was cut and fixed and embedded in paraffin. Serial sections were cut and processed for immunohistochemistry using PCNA as described in “Materials and Methods”. The presence of PCNA was visualized by using avidin-biotin peroxidase complex method and the control was counterstained with hematoxylin. The photographs from postoperative days 4 are shown in A. The number of PCNA positive cell was counted from each photograph and plotted in B (young rats) and C (aged rats).
Rats aged 6 months and 24 months which were used in experiments were purchased from Samtaco BioKorea (Seoul, Korea) and housed two per cage in a room with controlled temperature and humidity with a 12:12-h light-dark cycle. They were maintained on a standard diet with food and water ad libitum in an animal facility accredited by the Korean Association for Accreditation of Laboratory Animal Care. Animals were divided into treatment groups, each consisting of nine, and used in experiments.
Rats were anesthetized with intraperitoneal injection of ketamine and xylazine (87/13 mg/kg). Skin wounding and its protection was performed as described by Balazs (Balazs et al., 2001). By the dermabrasion technique using diamond bar, four second-degreed partial thickness circular wounds of 1.0 cm. A teflon wound chamber with a 1.2 cm inner diameter centered around the wound was glued into the edge of the skin with Histoacryl and then sewn using a surgical nylon suture (Ethicon 4-0) (FIG. 1C). In order to protect wound site, upon treatment with LPA or ACI, they were sprayed using a sterile filter (GF-C Whatman), followed by treatment. This work was carried out by a single plastic surgeon for consistency and exactness of experiments. 30 μM of LPA, 300 μM of ACI, and the mixture of LPA (30 μM) and ACI (300 μM) are dissolved in physiological saline to be a 200-μl aliquot, respectively. The 200-μl aliquot, corresponding to 30 pmol/mm^2, was applied […] into the wound of the animals anesthetized with inhalation. The contralateral side received 200 μl of saline as a control. […]
Serial sections (4 […]μm thick) were cut and processed for hematoxylin-eosin (H & E) and immunohistological staining. Paraffin sections on the microslides were deparaffinized in xylene and rehydrated sequentially in alcohol. […]

`Nc1ncnc2c1ncn2C1CCCO1` (stereo not shown) [ACI, 9-(tetrahydro-2′-furyl)adenine] was tested. Which “cAMP levels at 300 μM” value ([1]; 300 μM ACI, both young and senescent cells (FIG. 2)) did it give?
The value was “complete abrogation”.

And the “concentration of cAMP in aged cells upon treatment with ACI” value ([1]; aged fibroblasts, ACI)?
Its value is “again lowered”.

What about the cAMP levels ([1]; various concentrations of ACI, 1 hr, young (PD 20) and senescent (PD 65) fibroblasts (FIG. 2)) of the same compound?
The cAMP levels was “dose-dependently reduced cAMP levels”.

What about the “proliferation of aged cells compared to treatment with LPA” value ([2]; aged fibroblasts) of the same compound?
The value was “more increased”.

And the “cell number in senescent cells following ACI treatment” value ([2]; senescent fibroblasts (PD 73), 300 μM ACI, 4 days, unlike young cells (FIG. 3B))?
The value was “significant increase in the cell number”.

What about the “cell number in senescent cells of various cell types” value ([2]; 4 days) of the same compound?
Its value is “further enhanced”.

And the “basal and LPA-stimulated DNA synthesis in senescent cells” value [3]?
The value was “increased”.

What about the “thymidine incorporation, basal and LPA-stimulation conditions” value ([3]; young and aged fibroblasts, HUVEC and keratinocytes, 300 μM ACI (FIG. 4)) of the same compound?
The value was “enhanced the thymidine incorporation”.

And the “migration of senescent cells” value [4]?
Its value is “increase in cell migration”.

What about the “migration of young cells” value [4] of the same compound?
Its value is “unaltered”.

What about the “epithelialization (H & E) of aged wounded rats” value [5] of the same compound?
The value was “higher”.

And the “PCNA staining in aged rats” value [5]?
Its value is “increased significantly”.

And the “number of PCNA positive cells” value [5]?
Its value is “increased significantly”.

And the “wound healing rate (photographs of wounds)” value [5]?
The value was “faster than the untreated controls”.

With `CCCC(=O)Nc1ncnc2c1ncn2[C@@H]1O[C@@H]2COP(=O)(O)O[C@H]2[C@H]1OC(=O)CCC` [dbcAMP, dibutyryl cAMP] as the compound, how does the LPA-induced proliferation ([2]; both young and senescent cells, 1 mM dbcAMP after LPA, 4 days (FIG. 3)) read?
Its LPA-induced proliferation is “decreased”.

And the “basal and LPA-stimulated DNA synthesis in senescent cells” value [3]?
Its value is “decreased”.

And the LPA-induced cell migration ([4]; dbcAMP 1 mM with LPA 30 μM)?
Its LPA-induced cell migration is “reduced”.

And the basal cell migration ([4]; young and senescent cells, 1 mM dbcAMP)?
Its basal cell migration is “did not significantly affect”.

For lysophosphatidic acid [LPA], which “concentration of cAMP in aged cells” value ([1]; aged fibroblasts, treatment with LPA) is on record?
Its value is “increased”.

What about the “concentration of cAMP in young cells” value ([1]; young fibroblasts, treatment with LPA) of the same compound?
Its value is “lowered”.

And the “cell number (proliferation)” value ([2]; LPA 1-70 μM, 4 days, young and senescent fibroblasts (FIG. 3))?
Its value is “induces proliferation of both young and senescent cells in a dose-dependent manner”.

What about the “cell number in senescent cells of various cell types” value ([2]; 4 days) of the same compound?
Its value is “further enhanced”.

And the “migration of senescent cells” value [4]?
Its value is “increased senescent cell migration at 72 hrs significantly”.

And the “migration of young cells” value [4]?
Its value is “migration of cells is increased”.

And the “epithelialization (H & E) of aged wounded rats” value [5]?
The value was “higher”.

What about the “PCNA staining in aged rats” value [5] of the same compound?
Its value is “increased significantly”.

What about the “number of PCNA positive cells” value [5] of the same compound?
Its value is “increased significantly”.

And the “wound healing rate (photographs of wounds)” value [5]?
The value was “faster than the untreated controls”.

Source: patent US20120083472A1, “PHARMACEUTICAL COMPOSITION FOR PROMOTING THE HEALING OF WOUNDS AND CONTAINING LYSOPHOSPHATIDIC ACID AND AN ADENYLYL CYCLASE INHIBITOR AS ACTIVE INGREDIENTS” (SNU R&DB FOUNDATION, priority 2009, published 2012)
